Assays:
[1] = mouse, in vivo
Experimental: Next, we examined the effects of AECHL-1 on the growth of primary tumor allografts and xenografts of B16F10 cells growing in C57B1/6 mice and MCF-7 cells growing in athymic nude mice respectively. […] On this basis, we chose a dose that was 10-20% of this maximum tolerated dose or 50 and 100 μg/kg/day, i.p. or the doses which induced maximum cell death in vitro.

MCF-7 = assay: In vivo xenograft tumor model; design: species or system athymic nude mice; details: for tumor size reduced by: MCF-7 xenograft
Experimental: (§1) The data reported for tumor volumes are expressed as mean±SEM. Statistical differences were determined by ANOVA and post test applied was Tukey-Kramer multiple comparison Test. For Tumor to body weight ratio post test applied was Dunnett multiple comparisons test.

p53 = assay: Immunocytochemistry, p53 translocation in MCF-7 cells; assay type: cell-based, human; details: AECHL-1 2-40 μM, 24 h, confocal microscopy
Experimental: Immunocytochemistry was performed as described previously. […] Cells were incubated with primary anti-p53 antibodies (1:100; Abcam) and anti-α-tubulin antibodies (1:10000; Sigma chemical Co.) for 1 hour at room temperature. After washing with PBS, cells were incubated with CY2-conjugated secondary antibodies (1:200; Chemicon, Germany) and Alexa-conjugated secondary antibodies (1:10000; Sigma, St. Louis, Mo.) for 45 minutes and nuclear staining was done with DAPI. Images were captured under confocal microscope.
The tumor suppressor p53 plays a critical role in preventing human cancer formation. It translocates into the nucleus and works as a transcription factor by upregulating cell cycle regulatory proteins and induces cell cycle arrest and/or programmed cell death (apoptosis) (11). […] After 24 h of incubation, the p53 translocation in the nucleus (green fluorescence) and microtubule network (red fluorescence) was visualized by confocal microscopy.

B16F10 cells = assay: Cell cycle analysis by flow cytometry; assay type: cell-based, mouse; details: for Phase of cell cycle (% of cells) G1 / Phase of cell cycle (% of cells) G2/M / Phase of cell cycle (% of cells) S / Phase of cell cycle (% of cells) Sub G0: 24 h
Experimental: (§2) The cell cycle analysis of MCF-7, B16F10 MDA-MB-231 and PC3 cells was done by flow cytometry. […] Cells were harvested with trypsin (0.05%), 0.02% EDTA, 0.05% glucose and a single-cell suspension was prepared. Cells were washed and were pelleted by centrifugation (1000×g for 2 min) and fixed in 70% ethanol while vortexing and stored at 4° C. for 1 hour. Fixed cells were pelleted by centrifugation, to remove ethanol and washed with PBS. Cells were re-suspended in PBS containing 50 μg/ml propidium iodide, 0.1 g/L RNase and 1% BSA, incubated for 30 min at 37° C. in the dark, and analyzed with flow cytometry (FACS Vantage-BD Sciences, USA) equipped with an argon laser at 488 nm. The data was analyzed using Cell Quest software for determining the percent population in different phases of cell cycle.

B16F10 melanoma cells = assay: In vivo allograft tumor model; design: species or system C57B1/6 mice; details: for tumor weight to body weight ratio: after 12 days treatment, vs control (p<0.01); for tumor size reduced by / tumor volume on day 24: B16F10 allograft; for tumor size reduced by: day 18; for histological examination of tumor tissue: C57 mice
Experimental: as §1

[2] = tested on: PC3 human prostate cancer cells; assay: Cell viability (MTT) and proliferation ([3H]thymidine) assay; assay type: cell-based; details: 12, 24 and 48 h, concentration and time dependent
Experimental: (§3) The cytotoxic effect of AECHL-1 on the HEK 293, B16F10, PC3, MCF 7 and MDA-MB-231 cells was measured by MTT assay as described in previous studies. The cells were dispensed in 96-well, flat bottom microtiter plates (Becton Dickinson Labware) at a density of 5×10^3 cells each well. […] MTT [3-(4,5-dimethylthiazol-2yl)-2,5-diphenyl tetrazolium bromide] solution (5 mg/ml in PBS) was added at the end of experiment to each well to a final concentration of 0.5 mg/ml, and the cultures were incubated for further 4 h. The resulting formazan crystals were dissolved in 100 μl dimethylsulfoxide (DMSO) and absorbance was measured in a microplate reader at 570 nm (Molecular Devices, Spectra MAX 250). The cytotoxic effect was expressed as a relative percentage of inhibition calculated as follows: Relative inhibition(%)=[(A570 control−A570 AECHL-1)A570 control]×100 Cell Proliferation Assay
(§4) Aliquots of complete medium containing 5×10^3 cells (B16F10, PC3, MDA-MB-231 and MCF-7 cells) were distributed into 96-well tissue culture plates. […] After 6 h incubation, 1 μCi [^3H]thymidine was added to each well. Cells were harvested after 24 and 48 hrs of treatment on a glass filter paper with a 96-well auto-harvester and the amount of incorporated [^3H]thymidine was determined with a β-counter (Canberra packard).

[3] = tested on: B16F10 mouse melanoma cells; assay: as above; assay type: cell-based; details: 12, 24 and 48 h, concentration and time dependent
Experimental: as §3, §4

[4] = tested on: MCF-7 human breast cancer; assay: as above; assay type: cell-based
Experimental: as §3, §4

[5] = tested on: MDA-MB-231 human breast carcinoma; assay: as above; assay type: cell-based; details: 12, 24 and 48 h, concentration and time dependent
Experimental: as §3, §4

PC3 cells = assay: Cell cycle analysis by flow cytometry; assay type: cell-based, human; details: for Phase of cell cycle (% of cells) G1 / Phase of cell cycle (% of cells) G2/M / Phase of cell cycle (% of cells) S / Phase of cell cycle (% of cells) Sub G0: 24 h
Experimental: as §2

## C=C1C(OCC)C2(O)OCC34C(=C(C)c5c(C)cc(O)c(OCC)c5C23)OC(=O)C(OC(=O)C(C)(O)CC)C14 (stereo not drawn) [AECHL-1]
[1]
  maximum tolerated dose: 500 μg/mice
MCF-7; 5 μg/0.05 ml intra-tumor for 10 days
  tumor size reduced by: 35.72±0.05%
MCF-7; 10 μg/0.05 ml intra-tumor for 10 days
  tumor size reduced by: 28.55±0.06%
MCF-7; 20 μg/0.05 ml intra-tumor for 10 days
  tumor size reduced by: 4.1±0.27%
MCF-7; nude mice, 5 μg
  histological examination of tumor tissue: decreased tumor cell density
p53
  p53 translocation in the nucleus: translocation of the p53 into the nucleus
B16F10 cells; B16F10, 10 μM
  Phase of cell cycle (% of cells) G1: 56.55%
  Phase of cell cycle (% of cells) G2/M: 23.02%
  Phase of cell cycle (% of cells) S: 20.46%
  Phase of cell cycle (% of cells) Sub G0: 0.39%
B16F10 cells; B16F10, 20 μM
  Phase of cell cycle (% of cells) G1: 57.67%
  Phase of cell cycle (% of cells) G2/M: 23.60%
  Phase of cell cycle (% of cells) S: 18.40%
  Phase of cell cycle (% of cells) Sub G0: 0.65%
B16F10 cells; B16F10, 40 μM
  Phase of cell cycle (% of cells) G1: 72.08%
  Phase of cell cycle (% of cells) G2/M: 14.73%
  Phase of cell cycle (% of cells) S: 11.43%
  Phase of cell cycle (% of cells) Sub G0: 2.05%
B16F10 cells; B16F10, 100 μM
  Phase of cell cycle (% of cells) G1: 64.04%
  Phase of cell cycle (% of cells) G2/M: 13.23%
  Phase of cell cycle (% of cells) S: 15.41%
  Phase of cell cycle (% of cells) Sub G0: 7.82%
B16F10 cells; B16F10 cells
  phase of cell growth arrest: G0/G1 phase arrest
B16F10 melanoma cells; 50 μg
  tumor weight to body weight ratio: significant reduction
  tumor volume on day 24: increased
  histological examination of tumor tissue: Tumor cell density was found to be decreased with occurrence of picnotic/necrotic cells in the center of the tumor
B16F10 melanoma cells; 100 μg
  tumor weight to body weight ratio: significant reduction
  tumor volume on day 24: increased
  histological examination of tumor tissue: increase in necrotic nuclei through out the tumor area, with disappearance of neovasulization and hemorrhagic areas
B16F10 melanoma cells; 50 μg intra-tumor for 12 days
  tumor size reduced by: 44.303±5.20%
B16F10 melanoma cells; 100 μg intra-tumor for 12 days
  tumor size reduced by: 51.014±1.27%
[2]
  percent viability and proliferation of the tumor cells: significantly inhibited
[3]
  percent viability and proliferation of the tumor cells: significantly inhibited
[4]; MCF-7, 12, 24 and 48 h, concentration and time dependent
  percent viability and proliferation of the tumor cells: significantly inhibited
[4]; MCF-7 cells, 10 μM, 48 h
  inhibitory effect compared with reference drugs: stronger than that of Paclitaxel, or Cisplatin
[5]
  percent viability and proliferation of the tumor cells: significantly inhibited
PC3 cells; PC3, 10 μM
  Phase of cell cycle (% of cells) G1: 50.74%
  Phase of cell cycle (% of cells) G2/M: 30.94%
  Phase of cell cycle (% of cells) S: 16.21%
  Phase of cell cycle (% of cells) Sub G0: 1.66%
PC3 cells; PC3, 20 μM
  Phase of cell cycle (% of cells) G1: 48.96%
  Phase of cell cycle (% of cells) G2/M: 34.99%
  Phase of cell cycle (% of cells) S: 13.99%
  Phase of cell cycle (% of cells) Sub G0: 1.79%
PC3 cells; PC3, 40 μM
  Phase of cell cycle (% of cells) G1: 44.26%
  Phase of cell cycle (% of cells) G2/M: 33.82%
  Phase of cell cycle (% of cells) S: 17.71%
  Phase of cell cycle (% of cells) Sub G0: 4.14%
PC3 cells; PC3, 100 μM
  Phase of cell cycle (% of cells) G1: 42.92%
  Phase of cell cycle (% of cells) G2/M: 35.37%
  Phase of cell cycle (% of cells) S: 18.25%
  Phase of cell cycle (% of cells) Sub G0: 3.36%
PC3 cells; PC3, 100 μM, vehicle 45.41%
  cell count in S-G2/M phase: 53.62%
PC3 cells; PC3 cells
  phase of cell growth arrest: S-G2/M phase

From patent publication US8519163B2, “Anti-tumor activity of AECHL-1, novel triterpenoid isolated from Ailanthus excelsa in vitro and in vivo” (National Centre for Cell Science, priority 2008, dated 2013)
